# Measured values taken from patent EP4563151A1, “PHARMACEUTICAL COMPOSITION COMPRISING KRAS G12D INHIBITOR” (Jiangsu Hengrui Pharmaceuticals Co., Ltd., priority 2022, dated 2024).
# Tests used:
# [1] = test system: AGS cells; test: Inhibition of 3D proliferation of AGS cells (CellTiter-Glo 3D); type: cell-based; conditions: Homo sapiens, 120 h incubation
# Description: (§1) The inhibitory effect of the compound represented by formula I on the KRAS target was evaluated by assessing the inhibitory effect of the compound represented by formula I on the 3D proliferation of GP2d and AGS cells.
# (§2) AGS cells (Nanjing Cobioer, CBP60476) were cultured in a complete culture medium, namely an RPMI1640 medium (Hyclone, SH30809.01) containing 10% fetal bovine serum (Corning, 35-076-CV). On the first day of the experiment, the AGS cells were seeded into a 96-well low-adsorption plate (Corning, CLS7007-24EA) with a complete culture medium at a density of 1000 cells/well, with each well containing 90 µL of a cell suspension. The plate was centrifuged at 2000 rpm for 5 min at room temperature and then incubated overnight in a cell incubator at 37 °C with 5% CO2.
# (§3) The next day, the test compound, serially diluted in a complete culture medium, was added at 10 µL/well. The final concentrations of the compound for GP2d cells were 9 concentration points obtained by 3-fold serial dilution from 1 µM, and the final concentrations of the compound for AGS cells were 9 concentration points obtained by 3-fold serial dilution from 10 µM. A blank control containing 0.5% DMSO was set for both types of cells. The plates were incubated in a cell incubator at 37 °C with 5% CO2 for 120 h. […] The luminescence signal values were obtained using a multimode microplate reader (PerkinElmer, ENVISION). […]
# [2] = test system: GP2d cells; test: Inhibition of 3D proliferation of GP2d cells (CellTiter-Glo 3D); type: cell-based; conditions: 120 h incubation
# Description: as §1
# as §2, with “GP2d” for “AGS”, “CBP60010)” for “CBP60476)”, “a DMEM/high glucose culture” for “an RPMI1640”, “SH30243.01)” for “SH30809.01)”
# as §3, with “cells.” for “cells. The plates were incubated in a cell incubator at 37 °C with 5% CO2 for 120 h.”
# [3] = test system: ERK phosphorylation in AGS cells; test: Inhibition of ERK phosphorylation in AGS cells (HTRF method); type: cell-based; conditions: Homo sapiens, 1 h incubation with compound, phosphorylated ERK/total ERK ratio
# Description: In the experiment, the inhibitory effect of the compound represented by formula I on the KRAS target was evaluated by assessing the inhibitory effect of the compound on ERK phosphorylation in cells and based on the IC50.
# AGS cells (Nanjing Cobioer, CBP60476) were cultured in an RPMI1640 (Hyclone, SH30809.01) complete culture medium containing 10% fetal bovine serum. On the first day of the experiment, the AGS cells were seeded into a 96-well plate with a complete culture medium at a density of 40,000 cells/well, with each well containing 190 µL of a cell suspension. The plate was incubated overnight in a cell incubator at 37 °C with 5% CO2.
# The next day, the test compound, serially diluted in a complete culture medium, was added at 10 µL/well. The final concentrations of the compound were 9 concentration points obtained by 5-fold serial dilution from 10 µM. A blank control containing 0.5% DMSO was set. The plate was incubated in a cell incubator at 37 °C with 5% CO2 for 1 h. […]
# On the third day, the fluorescence values at an excitation wavelength of 337 nm and emission wavelengths of 665 nm and 620 nm were obtained using an ENVISION multimode microplate reader (PerkinElmer, ENVISION).
# The IC50 value for the inhibitory activity of the compound was calculated using Graphpad Prism software based on the compound concentration and the phosphorylated ERK/total ERK ratio. […]
# [4] = target: KRAS protein subtype G12D (Homo sapiens, UniProt P01116, G12D); test: Affinity for KRAS protein subtype G12D by SPR method (Biacore 8K); type: binding; conditions: biotinylated Avi-KRAS-G12D, single-cycle kinetic mode, 1:1 model
# Chain of KRAS protein subtype G12D (P01116 1-188 isoform P01116-2 G12D): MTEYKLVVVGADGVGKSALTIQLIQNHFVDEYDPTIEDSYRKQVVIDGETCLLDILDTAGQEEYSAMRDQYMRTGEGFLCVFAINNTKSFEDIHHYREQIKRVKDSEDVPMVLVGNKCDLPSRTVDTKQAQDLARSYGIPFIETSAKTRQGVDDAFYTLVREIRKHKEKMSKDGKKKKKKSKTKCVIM
# Description: (§4) Biotinylated Avi-KRAS-WT or Avi-KRAS-G12D was diluted to 20 µg/mL with a 1× HBS-P+ (Cat. # BR1006-71) buffer containing 100 mM MgCl2 and then allowed to flow through channel 2 of an SA (Cat. # BR1005-31) biosensor chip for 420 s to obtain a coupling level of approximately 5000-7000 RU. Then samples of the compound were injected sequentially in descending order for 120 s, followed by 720 s of dissociation. The testing was performed using a single-cycle kinetic mode. Reaction signals were detected in real time using a Biacore 8K instrument to obtain association and dissociation curves. After the testing was finished, data analysis was performed using Biacore 8K evaluation software. Data fitting was performed using a 1:1 model, and affinity data were obtained.
# [5] = target: KRAS protein subtype WT (Homo sapiens, UniProt P01116); test: Affinity for KRAS protein subtype WT by SPR method (Biacore 8K); type: binding; conditions: biotinylated Avi-KRAS-WT, single-cycle kinetic mode, 1:1 model
# Chain of KRAS protein subtype WT (P01116 1-188 isoform P01116-2): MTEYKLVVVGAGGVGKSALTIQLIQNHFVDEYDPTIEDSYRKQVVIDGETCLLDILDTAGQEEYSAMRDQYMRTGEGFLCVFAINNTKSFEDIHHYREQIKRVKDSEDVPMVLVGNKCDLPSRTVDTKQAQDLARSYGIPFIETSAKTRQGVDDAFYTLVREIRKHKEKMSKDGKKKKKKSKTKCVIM
# Description: as §4
smiles,measurement,setting,value
"CCc1c(F)ccc2cc(O)cc(-c3nc4c5c(nc(OC[C@@]67CCCN6C[C@H](F)C7)nc5c3F)N3C[C@H]5CC[C@H](N5)[C@H]3CO4)c12 [Compound represented by formula I, 5-Ethyl-6-fluoro-4-((5aS,6S,9R)-1-fluoro-12-(((2R,7aS)-2-fluorotetrahydro-1H-pyrrolizin-7a(5H)-yl)methoxy)-5a,6,7,8,9,10-hexahydro-5H-4-oxa-3,10a,11,13,14-pentaaza-6,9-methanonaphtho[1,8-ab]heptalen-2-yl)naphthalen-2-ol]",IC50,[1],5800 pM
same,IC50,[2],900 pM
same,IC50,[3],400 pM
same,Kd,[4],30 pM
same,Kd,[5],1540 pM
